A short description of the data set: Human HepG2 cell viability assay in 384 well format. It counts as toxicity, cell-based. More on the design: dose 125 nL, time 70.5 hour; concentration not given beside the values. Conditions: HepG2 cells, read-out: Inhibition.

SMILES strings stand for the structures.

`O=C1CC(c2cccnc2)c2c(c(C(=O)O)cn2-c2cccc(F)c2)N1` (stereo not drawn): the cytotoxicity at 70.5 h is -8.96%. As to `Cc1n[nH]c2nc(-c3ccccc3O)cc(C(=O)O)c12`, the cytotoxicity at 70.5 h amounted to 13.5%.

With `Cn1cc(C2SCC(=O)Nc3c2cnn3C(C)(C)C)cn1` (stereo not drawn), the cytotoxicity at 70.5 h came to 0.666%.

Take `CC(C)(C)n1ncc2c1NC(=O)CSC2c1ccsc1` (stereo not drawn): the cytotoxicity at 70.5 h was -13.1%. For `COc1ccccc1CNC(=O)COc1c(C)n(C)ccc1=O`, the cytotoxicity at 70.5 h is -20.3%. `CC1CC(=O)c2cc(C(=O)N3CCOCC3)c(=O)[nH]c2C1` (stereo not drawn): the cytotoxicity at 70.5 h was -0.268%. Consider `O=C(NCCc1cccc(F)c1)C1(n2cnnn2)CCCCC1`, for which the cytotoxicity at 70.5 h is -3.65%. Consider `Cc1nn(C)cc1-c1nn2c(C(F)(F)F)nnc2s1`, for which the cytotoxicity at 70.5 h is -9.41%. Turning to `CN(C)C(CNc1c(NCc2ccco2)c(=O)c1=O)c1ccccc1` (stereo not drawn), the cytotoxicity at 70.5 h was -8.7%.

For `CC1CCN(c2ccc(=O)n(CC(=O)N(C)Cc3ccccc3)n2)CC1`, the cytotoxicity at 70.5 h stood at 16.3%. Take `O=c1c(NCc2ccccn2)c(NCC(O)CN2CCOCC2)c1=O` (stereo not drawn): the cytotoxicity at 70.5 h was -12.9%. Regarding `Cc1nn(C2CCS(=O)(=O)C2)c(O)c1Cc1ccc(Br)cc1` (stereo not drawn), the cytotoxicity at 70.5 h turned out to be 19.3%. Consider `O=C(NC1CCCCC1)c1ccc(Oc2ccc3nncn3n2)cc1`, for which the cytotoxicity at 70.5 h was -7.56%. Take `CC(C)CNC(=O)CNc1c(NCc2ccco2)c(=O)c1=O`: the cytotoxicity at 70.5 h stood at 0.885%. The same measure for `Cc1nc(NC(=O)CCN2C(=O)c3ccccc3NC2C(C)C)sc1C` (stereo not drawn): -0.712%. Consider `CC(C)CNc1c(NCc2ccco2)c(=O)c1=O`, for which the cytotoxicity at 70.5 h is -11.5%. The same measure for `COCCn1ccc(=O)c(OCC(=O)Nc2cccc(OC)c2)c1C`: 13.8%; for `COCCn1ccc(=O)c(OCC(=O)Nc2ccc(OC)c(Cl)c2)c1C`: -5.11%; for `COc1ccc(CNc2c(N3CCN(C(C)=O)CC3)c(=O)c2=O)cc1`: -12.5%. Consider `O=c1c(NCCc2ccc(O)cc2)c(NCc2ccco2)c1=O`, for which the cytotoxicity at 70.5 h is -4.28%.

For `COc1cc(OC)cc(-c2noc(C(N)CCSC)n2)c1` (stereo not drawn), the cytotoxicity at 70.5 h was -2.69%.

`Cc1c(C(=O)N2CCNC(=O)C2)sc2nc[nH]c(=O)c12`: the cytotoxicity at 70.5 h is 13.4%. For `Cc1cccc(C)c1NC(=O)CC(CN1CCN(C)CC1)C(=O)O` (stereo not drawn), the cytotoxicity at 70.5 h is -15.8%. Take `CCCn1[nH]c(CNc2cccc(Cl)c2)nc1=O`: the cytotoxicity at 70.5 h is -15.4%. For the molecule `COc1c[nH]c(C(=O)N2CCN(c3ccc(Cl)cc3)CC2)cc1=O`, the cytotoxicity at 70.5 h amounted to 20.3%. The result for `CCn1c(=O)nc(N)c2c(-c3ccc(OC)cc3)csc21` reads -10.3%; that for `Cc1nc2sc(C(=O)N3CCNC(=O)C3)c(C)c2c(=O)[nH]1`, -4.68%; that for `Cc1cc(NCc2ccco2)nc2[nH]nc(N)c12`, -3.79%.

For `COCCn1ccc(=O)c(OCC(=O)Nc2ccc(Br)cc2)c1C`, the cytotoxicity at 70.5 h was -7.36%. On to `Cc1ccsc1C1CC(=O)Nc2c1cnn2C(C)C` (stereo not drawn), for which the cytotoxicity at 70.5 h was -7.26%. As to `Cc1ccc(C(=O)Nc2nnc(C3CC3)s2)c(-n2cnnn2)c1C`, the cytotoxicity at 70.5 h is -14.4%. Take `O=C(COc1coc(CN2CCCC2)cc1=O)Nc1cc(Cl)ccc1Cl`: the cytotoxicity at 70.5 h is -7.96%. `COC(=O)c1ccc(C2SC(C)=Nc3c2c(=O)[nH]n3C2CCCC2)cc1` (stereo not drawn): the cytotoxicity at 70.5 h was -14.5%.

Regarding `O=C(COc1coc(CN2CCCC2)cc1=O)Nc1ccc(Cl)c(Cl)c1`, the cytotoxicity at 70.5 h was -7.3%. Regarding `Cn1ccc2ccc(C(=O)N3CCN(C(=O)OC(C)(C)C)CC3)cc21`, the cytotoxicity at 70.5 h amounted to 3.39%.

`NC(=O)c1ccccc1NC(=O)CCN1CCN(CCO)CC1`: the cytotoxicity at 70.5 h was -10.4%. For `CC1=Nc2c(c(=O)[nH]n2C(C)C)C(c2ccc3c(c2)n(C)c(=O)n3C)S1` (stereo not drawn), the cytotoxicity at 70.5 h is -9%. In the case of `CC1=Nc2c(c(=O)[nH]n2C(C)C)C(c2ccc3nccnc3c2)S1` (stereo not drawn), the cytotoxicity at 70.5 h is -2.49%. As for `Cc1nn2cnnc2c(C)c1CCC(=O)Nc1nc2c(s1)CCC2`, the cytotoxicity at 70.5 h was -13%. In the case of `O=C(Nc1cccnc1-n1cc(Br)cn1)C1CCCC1`, the cytotoxicity at 70.5 h is -25.7%.

On to `COc1coc(C(=O)Nc2nc(-c3ccccn3)cs2)cc1=O`, for which the cytotoxicity at 70.5 h is -7.13%. For `CC(C)n1ncc2c1NC(=O)CC21C(=O)Nc2c(Br)cc(Cl)cc21` (stereo not drawn), the cytotoxicity at 70.5 h is -14.8%.

Take `COCCCNC(=O)c1cc(-c2ccc(OC)cc2)nn1C`: the cytotoxicity at 70.5 h came to 4.27%. The result for `CC(C)n1ncc2c1NC(=O)CC21C(=O)Nc2c(Cl)ccc(Cl)c21` (stereo not drawn) reads -12.2%; that for `CC(C)n1ncc2c1NC(=O)CC21C(=O)Nc2c(Cl)cc(Br)cc21` (stereo not drawn), -0.17%; that for `COc1ccc2nnc(CCCC(=O)NCCc3ccccc3)n2n1`, -9.61%. As for `CN1C(=O)COc2cc(NC(=O)CCc3nc4cccnc4[nH]3)ccc21`, the cytotoxicity at 70.5 h was -11.3%. For the molecule `COc1ccc2nnc(CCC(=O)NCc3cccn3C)n2n1`, the cytotoxicity at 70.5 h was -2.62%.

As to `COc1ccc(-c2cc(C(=O)NCCC(C)C)n(C)n2)cc1`, the cytotoxicity at 70.5 h turned out to be 4.25%. With `CC(C)n1ncc2c1NC(=O)CC21C(=O)Nc2cc(Cl)cc(Cl)c21` (stereo not drawn), the cytotoxicity at 70.5 h is -17.8%.

Turning to `Cc1cc(C)nc(N2CCCC(C(=O)Nc3n[nH]c(C(C)C)n3)C2)n1` (stereo not drawn), the cytotoxicity at 70.5 h is -7.23%. Turning to `O=C(CCCNc1ncccn1)Nc1ccc(Cn2cncn2)cc1`, the cytotoxicity at 70.5 h was -10.8%. Consider `Cc1nn(-c2ncccn2)c2c1C(c1cnn(C)c1)SCC(=O)N2` (stereo not drawn), for which the cytotoxicity at 70.5 h is -24.2%.

For the molecule `COC(=O)CNC(=O)c1cn(-c2ccccn2)c(=O)c2ccccc12`, the cytotoxicity at 70.5 h was -9.1%.

As to `Cc1nc(C(=O)N2CCN(S(C)(=O)=O)CC2)c(-c2ccccc2)s1`, the cytotoxicity at 70.5 h is 9.71%. In the case of `CC(C)(C)C1SCC(=O)Nc2c1c(O)nn2C1CCCCC1` (stereo not drawn), the cytotoxicity at 70.5 h was 8.92%. The result for `O=C(CCNC(=O)c1cnccn1)Nc1ncc[nH]1` reads -31.8%.

In the case of `CCS(=O)(=O)N1CCc2nnc(CN(C)C(C)C)n2CC1`, the cytotoxicity at 70.5 h came to 19.5%. The same measure for `Cc1occc1C(=O)N1C[C@@H]2CN(S(C)(=O)=O)CCO[C@@H]2C1`: 46.9%.

As for `CNC(=O)N1CCC2(CC1)C(=O)N(C)c1c(F)cccc12`, the cytotoxicity at 70.5 h amounted to 4.07%. `Cn1nnc2c1CCN(S(C)(=O)=O)C2COCC1CC1` (stereo not drawn): the cytotoxicity at 70.5 h amounted to 0.405%.

For the molecule `O=C(NCCN1CCOCC1)c1cc2c(s1)CCN2Cc1cccnc1`, the cytotoxicity at 70.5 h was -3.99%.

For the molecule `CCN1C(=O)CCCC12CCCN(C(=O)c1ccoc1)C2` (stereo not drawn), the cytotoxicity at 70.5 h was -3.69%.

As for `CN1C(=O)C2(CCN(C(=O)c3cccnc3)CC2)c2cccc(F)c21`, the cytotoxicity at 70.5 h was -2.04%. For `Cc1nc(C)c2c(n1)CCN(C(=O)CN(C)C)CC2`, the cytotoxicity at 70.5 h came to 2.27%. As to `CC(C)Nc1ncnc2c1CCNCC2`, the cytotoxicity at 70.5 h amounted to 2.95%.

In the case of `CCc1nnc2n1CCN(CC(O)c1ccc3c(c1)OCCO3)C2` (stereo not drawn), the cytotoxicity at 70.5 h turned out to be 23.6%. In the case of `CC(C)c1nc(C2CCCN2C(=O)c2ccc(C#N)cn2)no1` (stereo not drawn), the cytotoxicity at 70.5 h amounted to 1.98%. Turning to `CCC1CCCN(Cc2nc(N)c3ccccc3n2)C1` (stereo not drawn), the cytotoxicity at 70.5 h amounted to 4.3%. `CCCc1nc(C)c(C(=O)NCCn2nc3ccccn3c2=O)s1`: the cytotoxicity at 70.5 h worked out at 19.2%. With `CCc1nc(C)c(C(=O)NCCn2nc3ccccn3c2=O)s1`, the cytotoxicity at 70.5 h is -3.88%. For the molecule `Cc1nc(C(C)C)sc1C(=O)NCCn1nc2ccccn2c1=O`, the cytotoxicity at 70.5 h is -1.52%. The result for `O=C(NCCn1nc2ccccn2c1=O)c1sccc1-c1ccccc1` reads -5.5%. Consider `CCc1ccsc1C(=O)NCCn1nc2ccccn2c1=O`, for which the cytotoxicity at 70.5 h is -5.41%.

Turning to `CC1CN(CC(=O)Nc2ccncc2)CCN1Cc1nccn1C` (stereo not drawn), the cytotoxicity at 70.5 h is -0.423%. `CC1CN(CC(=O)N2CCOCC2)CCN1Cc1nccn1C` (stereo not drawn): the cytotoxicity at 70.5 h is -2.16%. For `CC1CN(CC(=O)NC2CCOCC2)CCN1Cc1nccn1C` (stereo not drawn), the cytotoxicity at 70.5 h is -0.539%. Regarding `c1nc(N2CCCC2Cn2cncn2)c2sccc2n1` (stereo not drawn), the cytotoxicity at 70.5 h was -4.84%. On to `c1ccc2oc(CN3CCCC(Cn4cncn4)C3)nc2c1` (stereo not drawn), for which the cytotoxicity at 70.5 h is -1.69%. The result for `CN(C)CCn1c(=O)n(C)c(=O)c2ccccc21` reads 18.7%; that for `CC(C)n1c(=O)c2ccccc2n(CCCN(C)C)c1=O`, -12.5%; that for `Cc1cccc(CN2CCS(=O)(=O)[C@@H]3CCN(C(=O)C4CC4)CC[C@@H]32)n1`, 15.9%.

`Cc1ccnc(C(=O)N2C[C@@H]3CN(S(C)(=O)=O)CCO[C@@H]3C2)c1`: the cytotoxicity at 70.5 h came out at 18%. Take `CC(C)N(C)Cc1nnc2n1CCN(S(=O)(=O)C1CC1)CC2`: the cytotoxicity at 70.5 h was -0.847%. As for `CC(C)N(C)Cc1nnc2n1CCCN(S(=O)(=O)C1CC1)C2`, the cytotoxicity at 70.5 h was -5.26%. The same measure for `O=C1CC(c2ccncc2)C2(CCN(C(=O)NC3CC3)CC2)N1` (stereo not drawn): -1.57%; for `O=C1NC2(CCN(CCO)CC2)CC1c1ccccc1` (stereo not drawn): -2.09%.

In the case of `O=C(c1ccccc1)N1C[C@@H]2CCCO[C@@H]2[C@H](N2CCCC2)C1`, the cytotoxicity at 70.5 h was -4.22%. With `O=C(c1ccoc1)N1CCCC2(CCC(=O)N2Cc2ccncc2)C1` (stereo not drawn), the cytotoxicity at 70.5 h is -1.87%. As for `CC(C)NC(=O)N1CCC2(CC1)NC(=O)CC2c1ccncc1` (stereo not drawn), the cytotoxicity at 70.5 h was -1.45%. Turning to `CCS(=O)(=O)N1CC[C@@H]2[C@H](CC1)N(Cc1cccc(C)n1)CCS2(=O)=O`, the cytotoxicity at 70.5 h was found to be 2.24%. As to `CCC(=O)N1CC[C@@H]2[C@H](CC1)N(Cc1cccc(C)n1)CCS2(=O)=O`, the cytotoxicity at 70.5 h was found to be 1.51%. The result for `Cc1cc(CN2C[C@H]3CCC[C@@]3(COCC3CCOCC3)C2)no1` reads 0.596%; that for `Cc1ccc(C(=O)N2C[C@@H]3CCCO[C@@H]3[C@H](N3CCCC3)C2)cn1`, 0.948%; that for `Cc1ccc2c(n1)N(CC1CC1)CCN(Cc1ccco1)C2`, 1.82%. The result for `c1ccc(CN2C[C@H]3CCC[C@@]3(COCC3CCOCC3)C2)nc1` reads 0.897%; that for `c1ccc(CN2CCc3ncnc(N4CCCC4)c3CC2)nc1`, -4.15%. Take `Cn1cc(CN2CCc3ncnc(N4CCOCC4)c3CC2)cn1`: the cytotoxicity at 70.5 h was -1.66%.

The values are drawn from ChEMBL document CHEMBL3507680, “University of Dundee, Gates Library screen for HepG2 cell viability”.
